# Measured values from patent publication US12421193B2, “GPR52 modulators and methods of use” (Neurocrine Biosciences, Inc., priority 2020, dated 2025).
# pEC50: −log10 of the molar value. Structures can show the parent of a compound that is named as a salt.
# Molecular target: T1, recombinant human GPR52 (Homo sapiens, UniProt Q9Y2T5)
# T1 construct: expressed in transfected cells
# Assay: TR-FRET cAMP assay (LANCE Ultra cAMP Kit), GPR52 activity
# Type: cell-based
# Conditions: Flp-In-CHO cells stably expressing recombinant human GPR52; cAMP production, normalized to the positive control
# Procedure: TR-FRET cAMP assays were performed using commercially available assay kits (LANCE™ Ultra cAMP Kit). Controls and compounds were solubilized in DMSO using ½ log dilution to generate duplicate 10-point dose response curves in 384-well polypropylene compound plates. Sixty nanoliters of the diluted compounds were transferred into 384-well NBS assay plates and further diluted to 1× with the addition of 2000 cells per well. Flp-In™—CHO cells that stably express recombinant human GPR52.
# Cells were harvested with cell stripper and resuspended in Stimulation Buffer (5 mM HEPES, 0.1% bovine serum albumin (BSA), 0.5 mM IBMX, pH 7.4). After thirty minutes incubation at room temperature, detection reagents were added to each well. Plates were then incubated for 30 minutes at room temperature. The LANCE™ Ultra cAMP assay uses time-resolved fluorescence resonance energy transfer (TR-FRET) to detect cAMVP production; this signal was quantified using a Pherastar multi-mode plate reader.
# Dose-response curves were generated from the fluorescence counts normalized to the positive control. E EC50 values were obtained using a nonlinear regression curve-fitting program.
# T1 sequence (Q9Y2T5 whole entry): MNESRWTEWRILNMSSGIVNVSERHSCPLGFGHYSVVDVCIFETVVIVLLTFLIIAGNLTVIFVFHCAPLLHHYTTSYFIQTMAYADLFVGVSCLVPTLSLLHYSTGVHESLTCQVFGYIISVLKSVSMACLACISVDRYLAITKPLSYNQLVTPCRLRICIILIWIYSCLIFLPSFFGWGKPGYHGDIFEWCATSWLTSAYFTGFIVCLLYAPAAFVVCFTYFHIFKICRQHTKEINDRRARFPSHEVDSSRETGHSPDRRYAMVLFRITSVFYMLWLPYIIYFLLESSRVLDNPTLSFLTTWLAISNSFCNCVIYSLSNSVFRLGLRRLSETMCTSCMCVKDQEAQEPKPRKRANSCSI
row,SMILES,pEC50
1,"Cc1cc(-c2cc(COc3cccc(C(F)(F)F)c3)ccn2)ccc1C(N)=O [Example 2, 4-{4-[3-(trifluoromethyl)phenoxymethyl]pyridin-2-yl}-2-methyl benzamide]",> 7.60
2,"Cc1cc(-c2cc(COc3ccccc3C(F)(F)F)ccn2)ccc1C(N)=O [Example 3, 4-{4-[2-(trifluoromethyl)phenoxymethyl]pyridin-2-yl}-2-methyl benzamide]",6.00 to 7.00
3,"Cc1cc(-c2cc(COc3ccc(S(C)(=O)=O)cc3)ccn2)ccc1C(N)=O [Example 6, 4-[4-(4-methanesulfonylphenoxymethyl)pyridin-2-yl]-2-methylbenzamide]",6.00 to 7.00
4,"Cc1cc(-c2cc(COc3ccc(F)c(C#N)c3)ccn2)ccc1C(N)=O [Example 7, 4-[4-(3-cyano-4-fluorophenoxymethyl)pyridin-2-yl]-2-methylbenzamide]",6.00 to 7.00
5,"Cc1ccc(OCc2ccnc(-c3ccc(C(N)=O)c(C)c3)c2)cc1F [Example 8, 4-[4-(3-fluoro-4-methylphenoxymethyl)pyridin-2-yl]-2-methylbenzamide]",6.00 to 7.00
6,"Cc1cc(-c2cc(COc3ccc(C#N)c(F)c3F)ccn2)ccc1C(N)=O [Example 9, 4-[4-(4-cyano-2,3-difluorophenoxymethyl)pyridin-2-yl]-2-methylbenzamide]",6.00 to 7.00
7,"Cc1cc(-c2cc(COc3cc(F)c(C#N)c(F)c3)ccn2)ccc1C(N)=O [Example 10, 4-[4-(4-cyano-3,5-difluorophenoxymethyl)pyridin-2-yl]-2-methylbenzamide]",7.00 to 7.60
8,"CC(=O)c1ccc(OCc2ccnc(-c3ccc(C(N)=O)c(C)c3)c2)cc1C [Example 13, 4-[4-(4-acetyl-3-methylphenoxymethyl)pyridin-2-yl]-2-methylbenzamide]",> 7.60
9,"Cc1ccc(F)c(OCc2ccnc(-c3ccc(C(N)=O)c(C)c3)c2)c1 [Example 14, 4-[4-(2-fluoro-5-methylphenoxymethyl)pyridin-2-yl]-2-methylbenzamide]",6.00 to 7.00
10,"Cc1cc(-c2cc(COc3cc(F)cc(F)c3)ccn2)ccc1C(N)=O [Example 15, 4-[4-(3,5-difluorophenoxymethyl)pyridin-2-yl]-2-methylbenzamide]",7.00 to 7.60
11,"COc1ccc(OCc2ccnc(-c3ccc(C(N)=O)c(C)c3)c2)cc1OC [Example 17, 4-[4-(3,4-dimethoxyphenoxymethyl)pyridin-2-yl]-2-methylbenzamide]",6.00 to 7.00
12,"Cc1ccc(OCc2ccnc(-c3ccc(C(N)=O)c(C)c3)c2)cc1Cl [Example 18, 4-[4-(3-chloro-4-methylphenoxymethyl)pyridin-2-yl]-2-methylbenzamide]",> 7.60
13,"Cc1cc(-c2cc(COc3cc(Cl)cc(Cl)c3)ccn2)ccc1C(N)=O [Example 20, 4-[4-(3,5-dichlorophenoxymethyl)pyridin-2-yl]-2-methylbenzamide]",> 7.60
14,"COc1ccc2ccc(OCc3ccnc(-c4ccc(C(N)=O)c(C)c4)c3)cc2c1 [Example 21, 4-(4-{[(7-methoxynaphthalen-2-yl)oxy]methyl}pyridin-2-yl)-2-methylbenzamide]",7.00 to 7.60
15,"COc1ccc(OCc2ccnc(-c3ccc(C(N)=O)c(C)c3)c2)c(Cl)c1 [Example 22, 4-[4-(2-chloro-4-methoxyphenoxymethyl)pyridin-2-yl]-2-methylbenzamide]",> 7.60
16,"CCCc1ccccc1OCc1ccnc(-c2ccc(C(N)=O)c(C)c2)c1 [Example 23, 4-[4-(2-propylphenoxymethyl)pyridin-2-yl]-2-methyl benzamide]",> 7.60
17,"COc1cc(Cl)cc(OCc2ccnc(-c3ccc(C(N)=O)c(C)c3)c2)c1 [Example 24, 4-[4-(3-chloro-5-methoxyphenoxymethyl)pyridin-2-yl]-2-methylbenzamide]",7.00 to 7.60
18,"Cc1cc(OCc2ccnc(-c3ccc(C(N)=O)c(C)c3)c2)ccc1F [Example 27, 4-[4-(4-fluoro-3-methylphenoxymethyl)pyridin-2-yl]-2-methylbenzamide]",6.00 to 7.00
19,"CCc1ccccc1OCc1ccnc(-c2ccc(C(N)=O)c(C)c2)c1 [Example 32, 4-[4-(2-ethylphenoxymethyl)pyridin-2-yl]-2-methylbenzamide]",6.00 to 7.00
20,"Cc1cc(-c2cc(COc3ccc([N+](=O)[O-])cc3)ccn2)ccc1C(N)=O [Example 33, 4-[4-(4-nitrophenoxymethyl)pyridin-2-yl]-2-methylbenzamide]",> 7.60
21,"Cc1cc(-c2cc(COc3ccc(Cl)c(F)c3)ccn2)ccc1C(N)=O [Example 34, 4-[4-(4-chloro-3-fluorophenoxymethyl)pyridin-2-yl]-2-methylbenzamide]",6.00 to 7.00
22,"Cc1ccc(OCc2ccnc(-c3ccc(C(N)=O)c(C)c3)c2)cc1 [Example 36, 4-[4-(4-methylphenoxymethyl)pyridin-2-yl]-2-methylbenzamide]",6.00 to 7.00
23,"CSc1ccc(OCc2ccnc(-c3ccc(C(N)=O)c(C)c3)c2)cc1 [Example 37, 4-{4-[4-(methylsulfanyl)phenoxymethyl]pyridin-2-yl}-2-methyl benzamide]",7.00 to 7.60
24,"Cc1cccc(OCc2ccnc(-c3ccc(C(N)=O)c(C)c3)c2)c1 [Example 38, 4-[4-(3-methylphenoxymethyl)pyridin-2-yl]-2-methyl benzamide]",7.00 to 7.60
25,"COc1cccc(OCc2ccnc(-c3ccc(C(N)=O)c(C)c3)c2)c1 [Example 39, 4-[4-(3-methoxyphenoxymethyl)pyridin-2-yl]-2-methylbenzamide]",6.00 to 7.00
26,"Cc1cc(-c2cc(COc3ccc(Cl)cc3)ccn2)ccc1C(N)=O [Example 40, 4-[4-(4-chlorophenoxymethyl)pyridin-2-yl]-2-methylbenzamide]",< 6.00
27,"Cc1cc(-c2cc(COc3cccc(C)c3C)ccn2)ccc1C(N)=O [Example 41, 4-[4-(2,3-dimethylphenoxymethyl)pyridin-2-yl]-2-methylbenzamide]",6.00 to 7.00
28,"Cc1cc(-c2cc(COc3ccc4ccccc4c3)ccn2)ccc1C(N)=O [Example 42, 4-{4-[(naphthalen-2-yloxy)methyl]pyridin-2-yl}-2-methylbenzamide]",7.00 to 7.60
29,"Cc1ccc(OCc2ccnc(-c3ccc(C(N)=O)c(C)c3)c2)c(Cl)c1 [Example 44, 4-[4-(2-chloro-4-methylphenoxymethyl)pyridin-2-yl]-2-methylbenzamide]",> 7.60

# Now from value to molecule:
row,pEC50,SMILES
1,7.00 to 7.60,"Cc1cc(-c2cc(COc3ccc(C(F)(F)F)cc3)ccn2)ccc1C(N)=O [Example 1, 4-{4-[4-(trifluoromethyl)phenoxymethyl]pyridin-2-yl}2-methyl-benzamide hydrochloride]"
2,7.00 to 7.60,"Cc1cc(-c2cc(COc3ccc(C#N)c(F)c3)ccn2)ccc1C(N)=O [Example 4, 4-[4-(4-cyano-3-fluorophenoxymethyl)pyridin-2-yl]-2-methylbenzamide hydrochloride]"
3,6.00 to 7.00,"Cc1cc(-c2cc(COc3cccc(S(C)(=O)=O)c3)ccn2)ccc1C(N)=O [Example 5, 4-[4-(3-methanesulfonylphenoxymethyl)pyridin-2-yl]-2-methylbenzamide]"
4,6.00 to 7.00,"Cc1cc(-c2cc(COc3ccnc(C(F)(F)F)c3)ccn2)ccc1C(N)=O [Example 11, 4-[4-({[2-(trifluoromethyl)pyridin-4-yl]oxy}methyl)pyridin-2-yl]-2-methyl benzamide]"
5,7.00 to 7.60,"Cc1cc(-c2cc(COc3ccc(F)cc3)ccn2)ccc1C(N)=O [Example 12, 4-[4-(4-fluorophenoxymethyl)pyridin-2-yl]-2-methylbenzamide]"
6,6.00 to 7.00,"Cc1cc(-c2cc(COc3cccc(CCO)c3)ccn2)ccc1C(N)=O [Example 16, 4-{4-[3-(2-hydroxyethyl)phenoxymethyl]pyridin-2-yl}-2-methylbenzamide]"
7,6.00 to 7.00,"COc1ccc(OCc2ccnc(-c3ccc(C(N)=O)c(C)c3)c2)c2ccccc12 [Example 19, 4-(4-{[(4-methoxynaphthalen-1-yl)oxy]methyl}pyridin-2-yl)-2-methylbenzamide]"
8,6.00 to 7.00,"Cc1cc(-c2cc(COc3ccccc3)ccn2)ccc1C(N)=O [Example 25, 4-[4-(phenoxymethyl)pyridin-2-yl]-2-methylbenzamide]"
9,7.00 to 7.60,"Cc1cc(-c2cc(COc3ccc(C#N)cc3)ccn2)ccc1C(N)=O [Example 26, 4-[4-(4-cyanophenoxymethyl)pyridin-2-yl]-2-methylbenzamide]"
10,6.00 to 7.00,"Cc1cc(OCc2ccnc(-c3ccc(C(N)=O)c(C)c3)c2)ccc1Cl [Example 28, 4-[4-(4-chloro-3-methylphenoxymethyl)pyridin-2-yl]-2-methylbenzamide]"
11,6.00 to 7.00,"Cc1cc(F)ccc1OCc1ccnc(-c2ccc(C(N)=O)c(C)c2)c1 [Example 29, 4-[4-(4-fluoro-2-methylphenoxymethyl)pyridin-2-yl]-2-methylbenzamide]"
12,6.00 to 7.00,"COc1ccc(OCc2ccnc(-c3ccc(C(N)=O)c(C)c3)c2)cc1 [Example 30, 4-[4-(4-methoxyphenoxymethyl)pyridin-2-yl]-2-methylbenzamide]"
13,6.00 to 7.00,"Cc1cc(-c2cc(COc3cccc4c3CCC4=O)ccn2)ccc1C(N)=O [Example 31, 4-(4-{[(1-oxo-2,3-dihydro-1H-inden-4-yl)oxy]methyl}pyridin-2-yl)-2-methylbenzamide]"
14,6.00 to 7.00,"CC(=O)Nc1cccc(OCc2ccnc(-c3ccc(C(N)=O)c(C)c3)c2)c1 [Example 35, 4-[4-(3-acetamidophenoxymethyl)pyridin-2-yl]-2-methylbenzamide]"
15,6.00 to 7.00,"CC(=O)c1cccc(OCc2ccnc(-c3ccc(C(N)=O)c(C)c3)c2)c1 [Example 43, 4-[4-(3-acetylphenoxymethyl)pyridin-2-yl]-2-methylbenzamide]"
